# Literature values, collected in patent US20180103657A1, “FROZEN CONFECTION” (Conopco, Inc., d/b/a UNILEVER, priority 2015, published 2018).
# Details: partition coefficient at 20 degrees centigrade
smiles,measurement,value
CCCC(=O)OCC [Ethyl butyrate],Log P [flavour compounds],1.8
